melting point [°C]	SMILES
159	CCCCc1nc2c(N)nc3cccnc3c2n1CCOc1ccccc1
138 to 140	NC(=O)N(O)Cc1ccc(Cl)s1
160 to 162	COc1ccc(S(=O)(=O)C2(CCCC#Cc3ccc(Cl)cc3)CC(=O)NC2=O)cc1 (centres undefined)
74	CCOC(=O)C(C)(C)Oc1ccc(-c2ccc(CCNC(=O)c3cc(OC)cc(OC)c3)cc2)cc1
168 to 170	CSc1ccc2c(SCc3ccc(N(C)C)cc3)ccnc2c1
> 250	COc1cccc(OC)c1CNC(=O)c1ccc2c(c1)C(=NNc1ccc(S(N)(=O)=O)cc1)C(=O)N2
212	CC(C)n1cc(-c2ccc(F)cc2)c(-c2ccc(F)cc2)c1C(=O)O
128 to 130	S=C(NCN1CCOCC1)C(c1ccccc1)c1ccccn1 (centres undefined)
107 to 111	CC1(C)SCN(CCCCN2CCN(c3ccc4ccccc4n3)CC2)C1=O
350 to 357	NC(=O)c1ccc2nc3c(c(=O)n2c1)CCC3=Cc1ccccc1
129 to 132	CC1(C)Oc2cc(Cl)c(C#N)cc2C2OC21 (centres undefined)
143 to 144	CCOC(=O)c1cccc(-c2ccc(Cl)c3cc(CBr)sc23)c1
170 to 172	COc1ccc(NC(=O)/C=C/c2ccc(N)c(F)c2)cc1N
139 to 141	COC(=O)CCc1ccc(-n2cnn(CCC3CCN(C(=O)OC(C)(C)C)CC3)c2=O)cc1
158 to 161	CN1C(=O)N(CCN2C(=O)N(C)C(O)C2O)C(O)C1O (centres undefined)
158 to 159	COC(=O)c1ccc([N+](=O)[O-])cc1-n1c(CCl)nc2ccccc2c1=O
162 to 163	CNC(=O)c1cccnc1CC(=O)c1ccc(Cl)cc1
198 to 200	CC(C)[C@H](NC(=O)OCc1ccccc1)C(=O)NC(Cc1ccccc1)C(O)C(Cc1ccccc1)NC(=O)[C@@H](NC(=O)OCc1ccccc1)C(C)C (some centres undefined)
98.5 to 102	O=C(CCn1ccnc1)Cc1c(Cl)cccc1Cl
154 to 157	COC(=O)c1ccsc1N/C=C(\C#N)C(=O)OC(C)(C)C
77 to 79	COc1ccc(C2(C#N)C=C(C#N)CCC2)cc1OC1CCCC1 (centres undefined)
207 to 208	COc1ccc(-c2ccccc2)c2sc(N)nc12
230 to 231	CS(=O)(=O)N(c1cc(-c2ncc(C(F)(F)F)cc2Cl)ccc1Cl)S(C)(=O)=O

melting point [°C]	SMILES
84 to 86	COC(=O)c1cccc(C(=O)Cc2cccc(Br)n2)c1
326	O=C(O)c1ccc(-c2ccc(-c3cc(-c4ccc(-c5ccc(C(=O)O)cc5)cc4)cc(-c4ccc(-c5ccc(C(=O)O)cc5)cc4)c3)cc2)cc1
146 to 148	CC(C)c1ccc(COc2ccc(CC(=O)O)cc2Cl)cc1
130 to 132	COc1ccc(COc2ccc(Oc3c(C)cc(/C=C/C(=O)N4CCN(Cc5ccc(/C=C/COc6ccc(C)cc6)cc5)CC4)cc3C)nc2)cc1
215 to 217	COc1cc(-c2ncn(-c3ccc(C(F)(F)F)cc3)c2-c2ccc(N(C)C)cc2)cc(OC)c1OC
84 to 86	O=C(O)COc1ccc(C(=O)NCC2CCN(c3ccncc3)CC2)cc1
169 to 170	O=C(OCc1ccccc1)c1cc2c3ccccc3n(Cc3ccccc3)c2cn1
96	C=CCN1CC(c2ccc(N)cc2F)CCS1(=O)=O (centres undefined)
160 to 164	O=C(NN1CCCCC1)C1=NN(c2ccc(Cl)cc2Cl)C(c2ccccc2)C1 (centres undefined)
81 to 82	CC(C)c1nn(-c2ccc(C(F)(F)F)cc2)cc1C=O
95 to 97	COc1ccc2c(c1)c(Cc1cc(=O)n(-c3cccc([N+](=O)[O-])c3)[nH]1)c(C)n2C(=O)c1ccc(Cl)cc1
126 to 127	COC(=O)c1ccc(-c2noc(C(F)(F)F)n2)s1
86.7 to 88.2	CCC=C(CCC)c1c2c(nn1C)N(c1c(C)cc(C)cc1Cl)CCC2
50 to 52	CCCCCCCCCCCCCCCCCCNC(=O)CC[Si](OCC)(OCC)OCC
195	COC(=O)c1csc(C)c1S(=O)(=O)NC(=O)Nc1nc(C)nc(OC)n1
72 to 73	COc1cc([N+](=O)[O-])cc(OC(F)F)c1OC
76.3 to 76.8	CCCCCCCc1ccc(-c2ncc(C#N)c(Cl)n2)cc1
111 to 112	Cc1cc(NC(=O)CCCCCBr)ccc1O
< 300	CNC(=O)c1cc(C(=O)O)cc(C(=O)NC)n1
136 to 138	COc1ccc2c(c1)C(N)(CCC#N)C(=O)N2c1ccc(F)cc1 (centres undefined)
167 to 169	OCC1OC(n2c(Cl)nc3c(Br)c(Br)ccc32)C(O)C1O (centres undefined)
114 to 116	Cc1nc(Br)sc1NC(=O)OC(C)(C)C
230	CCOC(=O)c1cn(-c2ccc(F)cn2)c2nc(Cl)c(F)cc2c1=O

melting point [°C]	SMILES
208 to 210	N#Cc1cc(Cl)ccc1Oc1cc(Br)c(F)cc1O
> 300	CCOC(=O)C1Nc2cc(Cl)c(Cl)cc2NC1=O (centres undefined)
200 to 201	COc1cc(NS(=O)(=O)c2ccc3c(c2)CCN3C=O)cc(OC)c1OC
100 to 102	O=C(CCCCC1SCC2NC(=O)NC21)NCCOCCOCCN1C(=O)C(Br)=C(Br)C1=O (centres undefined)
164 to 165	CCc1nnc(-c2ccc3occ(-c4ccc(SC)cc4)c3c2)o1
258	O=C(Nc1cc2nc(-c3ccc(C(=O)C4CCCCC4)cc3)[nH]c2cn1)c1ccccn1
118 to 123	CC(=O)Nc1ccc2c(c1)NCC(CN(C)C)C2 (centres undefined)
171 to 174	Nc1nc(-c2ccc(F)c3ccccc23)co1
175	Cc1nn(C(=O)Oc2ccccc2)c(=O)n1N
158 to 161	Cn1c(C(=O)O)cc2c(OC[C@@H](O)CN3CCC(c4ccc5ccccc5c4)CC3)cccc21
178 to 180	N#CC=C1CCN(c2ccc(N3C[C@H](CNC(=O)CI)OC3=O)cc2F)CC1
205 to 206	CCCC(=O)N[C@H]1C[C@H](C(=O)OC)Nc2cc(Cl)cc(Cl)c21 (relative stereo)
244	CS(=O)(=O)N(c1cccc(C(=O)Nc2nccs2)c1)C1CN(C(c2ccc(Cl)cc2)c2ccc(Cl)cc2)C1
102 to 105	Cc1c(O)cccc1C(=O)N[C@@H](Cc1ccccc1)[C@H](O)C(=O)N1CSC(C)(C)[C@H]1C(=O)NCc1cccc(OC(F)(F)F)c1
130 to 131	Cc1oc(-c2ccccc2)nc1COc1ccc(COc2ccc(OCc3ccccc3)cc2CC#N)cc1
95 to 96	CC(C)(C)OC(=O)[C@@H]1CC[C@H](CC(=O)O)N1Cc1ccccc1
307 to 311	N#Cc1ccc(-c2nc(S)[nH]c2-c2ccc(Br)cc2)cc1
128	O=c1cnn(-c2cc(Cl)c(C(c3ccc(Cl)cc3)c3nc(-c4ccccc4)no3)c(Cl)c2)c(=O)[nH]1 (centres undefined)
92 to 93	COc1ccc(COc2cccc(C=O)c2OCc2ccc(OC)cc2)cc1
185 to 187	CC(C)CC(NC(=O)c1ccc(CBr)cc1)C(=O)NC(C)(C)C#N (centres undefined)
58 to 63	CC1(C)CC(OC(=O)CCCCCCCCC(=O)OC2CC(C)(C)PC(C)(C)C2)CC(C)(C)P1 (centres undefined)
184 to 186	CON1CCC(=Cc2nc(C(C)(C)C)c(O)c(C(C)(C)C)n2)C1=O
217 to 219	O=C(NC(=O)c1cccs1)NC1CCN(Cc2ccc3ccccc3c2)CC1
